Laboratory results published in patent US20080058299A1, “Method of treating or preventing bone deterioration or osteoporosis” (priority 2005, published 2008).
Several values for one entry are separate records, joined by “and”; a condition that tells them apart may be missing. Identical values can stand only once. Like-named read-outs stand apart in the source and are kept apart here.

Experiments:
[1] = test system: postmenopausal women; details: 32 postmenopausal women, average 19 months, versus 19 placebo-treated women; cited from earlier work
[2] = test system: hypogonadal men; experiment: Markers of bone metabolism in hypogonadal men; type: in vivo
Protocol: (§1) Ten men with severe and untreated hypogonadism due to known disease were entered into the study.
(§2) All subjects were assessed by dual energy X-ray absorptiometry (DXA) and magnetic resonance microimaging (μMRI) at 0, 6, 12 and 24 months. The hypogonadal subjects were also assessed for markers of bone metabolism at 0, 3, and 6 months.
After an overnight fast, blood and a timed 2-hour urine sample were collected. Serum and urine samples were frozen at −70° C. The markers and methods of assay were as follows: bone-specific alkaline phosphatase (BAP), immunoradiometric assay (Tandem-R Ostase, Beckman-Coulter, Inc., Fullerton, Calif.); osteoprotegerin, enzyme-linked immunosorbent assay (American Laboratory Products Company, Windham, N.H.); intact N-terminal propeptide of type I procollagen (PINP), radioimmunoassay, (Orion Diagnostica UniQ, IDS, Inc. Fountain Hills, Ariz.); cross-linked N-telopeptides of type I collagen (NTx), enzyme-linked immunosorbent assay (Osteomark, Ostex International, Inc. Seattle, Wash.). For each assay, all samples were measured in a single assay run.

[3] = test system: hypogonadal men; experiment: Magnetic resonance microimaging (μMRI) of trabecular architecture of the right distal tibia; type: in vivo
Excerpt: (§3) Ten men with severe and untreated hypogonadism due to known disease were entered into the study. […] All ten subjects had secondary hypogonadism. Eight subjects had pituitary adenomas, one had pinealoma, and one had Kallmann's syndrome. Hypogonadism developed in adulthood in nine. […] The estimated duration of hypogonadism was 2-30 years (median, 5 years). […] Of the two who had been treated, one had not been treated for four years and the other for 20 years before entering the study. The median age at entry was 51 years (range 31-78).
as §2
Magnetic resonance microimaging (μMRI) of the right distal tibia was performed using a Signa 1.5 Tesla MR scanner (GE Medical Systems, Milwaukee, Wis.) and a custom-designed receive-only radiofrequency phased array surface coil. The coil was placed on the anterior right tibia, the edge 1 cm proximal to the midpoint of the medial malleolus, and the right foot was immobilized. Twenty-eight images were obtained to map trabecular architecture. Song H K, et al., Magn. Reson. Med., 41:947-53 (1999). […] The data were processed using a custom-designed program written in IDL (Interactive Data Language, Boulder, Colo.). Wehrli F W, et al., J. Bone Miner. […] The data were motion-corrected, filtered and Fourier transformed. To ensure that the same volume was analyzed at each time point for each subject, the images corresponding to the 0, 6, 12, and 24 month examinations of each subject were matched for volume of interest by identifying similar trabecular features. After the volume of interest was selected manually on each of the matched slices by tracing a line approximately 1 mm from the endocortical boundary on the anterior half of the distal metaphysis, bone volume fraction maps were computed. Subvoxel processing yielded a voxel size of 69×69×103 μm^3. Hwang S N, et al., Magn. Reson. Med., 47 (2002). A cylindrical core measuring 6.85 mm in diameter was obtained from the center of the volume of interest. (FIG. 3).
Digital topological analysis of the trabecular network was performed on the entire volume of interest. Gomberg BR, et al., IEEE Trans. […] The topological class of each image voxel was determined, yielding the density of surface voxels, curve voxels, and voxels part of mutual junctions. The topological analysis began with binarization of the three-dimensional images, followed by skeletonization, which converted the plate-like elements of the trabecular network to surfaces and the rodlike elements to curves. Each voxel was then classified as belonging to a surface, curve, or junction between these voxel types. […] One composite parameter was the surface-to-curve ration, the ratio of all surface voxels to all curve voxels. The higher the ratio, the more intact in the trabecular network, and vice versa. The second composite parameter was the topological erosion index, a ratio of parameters that are expected to increase upon trabecular deterioration (Curve edge and curve interior voxels, surface and profile edges, and curve-curve junction voxels) to those expected to decrease (surface interior voxels and surface-surface junctions). The lower the topological erosion index, the smaller the degree to which the trabecular network has deteriorated. Trabecular thickness was determined by an independent program based on the concept of fuzzy distance transform. Saha P K, et al., IEEE Trans.
For all parameters, changes from 0 to 24 months were tested by multivariate analysis of variance, one factor repeated measures design. If the change from 0 to 24 months was significant, pair-wise comparisons of each treatment time (6, 12, and 24 months) against pretreatment were determined with Dunnett's test. Missing values were imputed by the method of last observation carried forward. […]

[4] = cited from earlier work
[5] = Serum testosterone and estradiol concentrations in hypogonadal men treated with AndroGel for 24 months; type: in vivo
Excerpt: as §3
Estradiol was measured by ultrasensitive immunoradiometric assay (DSL, Webster, Tex.). Intra- and interassay coefficients of variation were <10%.

[6] = test system: hypogonadal men; experiment: Bone mineral density by DXA in hypogonadal men; type: in vivo
Protocol: as §1, §2
Bone mineral density (BMD) of the anterior-posterior lumbar spine (L1-L4) and of the right hip was determined by DXA using Hologic densitometers (Hologic, Inc., Bedford, Mass.), a QDR-4500A for the first year of the study and a Dephi A for the second. […] Scans from the same subject were evaluated by the “compare” feature of the DXA instrument. The coefficients of variation for long-term instrument stability, as assessed by daily measurements of a phantom, were <0.9%.
For all parameters, changes from 0 to 24 months were tested by multivariate analysis of variance, one factor repeated measures design. If the change from 0 to 24 months was significant, pair-wise comparisons of each treatment time (6, 12, and 24 months) against pretreatment were determined with Dunnett's test. Missing values were imputed by the method of last observation carried forward. A type I error rate of 0.05 was used for determining statistical significance. SAS statistical software, version 9.1 (SAS Institute, Inc., Cary, N.C.) was used for all analysis.

[7] = distal tibia, 24 Months of treatment

SMILES: CC[C@H](C)[C@H](NC(=O)[C@H](CCC(=O)O)NC(=O)[C@H](CO)NC(=O)[C@@H](NC(=O)[C@@H](N)CO)C(C)C)C(=O)N[C@@H](CCC(N)=O)C(=O)N[C@@H](CC(C)C)C(=O)N[C@@H](CCSC)C(=O)N[C@@H](Cc1cnc[nH]1)C(=O)N[C@@H](CC(N)=O)C(=O)N[C@@H](CC(C)C)C(=O)NCC(=O)N[C@@H](CCCCN)C(=O)N[C@@H](Cc1cnc[nH]1)C(=O)N[C@@H](CC(C)C)C(=O)N[C@@H](CC(N)=O)C(=O)N[C@@H](CO)C(=O)N[C@@H](CCSC)C(=O)N[C@@H](CCC(=O)O)C(=O)N[C@@H](CCCN=C(N)N)C(=O)N[C@H](C(=O)N[C@@H](CCC(=O)O)C(=O)N[C@@H](Cc1c[nH]c2ccccc12)C(=O)N[C@@H](CC(C)C)C(=O)N[C@@H](CCCN=C(N)N)C(=O)N[C@@H](CCCCN)C(=O)N[C@@H](CCCCN)C(=O)N[C@@H](CC(C)C)C(=O)N[C@@H](CCC(N)=O)C(=O)N[C@@H](CC(=O)O)C(=O)N[C@H](C(=O)N[C@@H](Cc1cnc[nH]1)C(=O)N[C@@H](CC(N)=O)C(=O)N[C@@H](Cc1ccccc1)C(=O)O)C(C)C)C(C)C [rhPTH]
- trabecular connectivity, in words [1]: significantly increased their trabecular connectivity

SMILES: C[C@]12CC[C@H]3[C@@H](CCC4=CC(=O)CC[C@@]43C)[C@@H]1CC[C@@H]2O [Testosterone]
- bone-specific alkaline phosphatase (BAP), in words ([2]; 0 to 6 months): did not change
- serum intact N-terminal propeptide of type I procollagen (PINP) ([2]; 3 months of treatment): 71.3 ± 32.1 µg/L
- Serum osteoprotegerin ([2]; 6 months of treatment): 4.29 ± 0.82 pmol/L
- Urine NTx, in words ([2]; baseline to 6 months): did not change
- Bone Volume Fraction, % Change 0-24 months ([3]; distal tibia): 5.0 ± 4.2%
- Bone Volume Fraction, Change 0-24 months ([3]; distal tibia): 0.005 ± 0.004
- Trabecular Thickness, % Change 0-24 months ([3]; distal tibia): 1.5 ± 0.5%
- Trabecular Thickness, Change 0-24 months ([3]; distal tibia): 1.7 ± 0.6 μ
- Bone Volume Fraction [3, 7]: 0.103 ± 0.011
- Trabecular Thickness [3, 7]: 120.5 ± 3.8 μ
- Bone Volume Fraction, % Change 0-24 months ([3]; distal tibia, listed as testosterone): 5%
- increase of trabecular thickness during treatment ([3]; starting at 6 months): ~2%
- bound to protein in the blood ([4]; circulating testosterone): 98%
- share bound weakly to albumin ([4]; in men): 60%
- share of binding to sex hormone binding globulin (SHBG) ([4]; in men): approximately 40%
- concentration at 3 months ([5]; male, human, serum, topical, AndroGel 5-10 g/day, month 3): 6.56 ng/mL and 22.8 nM
- serum testosterone concentration (in words) ([5]; throughout the 24 months of treatment): remained normal
- Femoral Neck BMD, % Change 0-24 months [6]: 2.1 ± 5.1%
- Femoral Neck BMD, Change 0-24 months [6]: 0.016 ± 0.038 g/cm^2
- Intertrochanteric BMD, % Change 0-24 months [6]: 4.4 ± 3.7%
- Intertrochanteric BMD, Change 0-24 months [6]: 0.049 ± 0.037 g/cm^2
- Spine BMD, % Change 0-24 months [6]: 7.4 ± 5.1%
- Spine BMD, Change 0-24 months [6]: 0.069 ± 0.053 g/cm^2
- Total Hip BMD, % Change 0-24 months [6]: 3.8 ± 3.4%
- Total Hip BMD, Change 0-24 months [6]: 0.034 ± 0.029 g/cm^2
- Trochanter BMD, % Change 0-24 months [6]: 4.0 ± 4.7%
- Trochanter BMD, Change 0-24 months [6]: 0.027 ± 0.030 g/cm^2
- Ward's Triangle BMD, % Change 0-24 months [6]: 5.1 ± 10.1%
- Ward's Triangle BMD, Change 0-24 months [6]: 0.028 ± 0.060 g/cm^2
- Femoral Neck BMD ([6]; 24 Months of treatment): 0.828 ± 0.145 g/cm^2
- Intertrochanteric BMD ([6]; 24 Months of treatment): 1.206 ± 0.205 g/cm^2
- Spine BMD ([6]; 24 Months of treatment): 1.000 ± 0.219 g/cm^2
- Total Hip BMD ([6]; 24 Months of treatment): 0.994 ± 0.162 g/cm^2
- Ward's Triangle BMD ([6]; 24 Months of treatment): 0.616 ± 0.172 g/cm^2
- Spine BMD, % Change 0-24 months ([6]; listed as testosterone): 7.4%
